From patent publication US7279325B2, “Method for identifying antagonist compounds of the estrogen-related receptor 3 (ERR3) by using the x-ray structural coordinates of the ligand binding domain” (priority 2002, dated 2007)

Tests used:
[1] = biological target: T1, ERR3 LBD/GST-SRC-1 RID complex (Homo sapiens, UniProt P62508); assay: In vitro protein-protein interaction assay, wt ERR3 LBD with SRC-1 RID (native gels); assay type: biochemical; settings: 10^−4M ligand
T1 construct: wt or mutant ERR3 LBDs (residues 229 to 458, human and murine receptor are identical); made in house; host or cells: E. coli BL21(DE3)
T1 sequence (P62508 229-458): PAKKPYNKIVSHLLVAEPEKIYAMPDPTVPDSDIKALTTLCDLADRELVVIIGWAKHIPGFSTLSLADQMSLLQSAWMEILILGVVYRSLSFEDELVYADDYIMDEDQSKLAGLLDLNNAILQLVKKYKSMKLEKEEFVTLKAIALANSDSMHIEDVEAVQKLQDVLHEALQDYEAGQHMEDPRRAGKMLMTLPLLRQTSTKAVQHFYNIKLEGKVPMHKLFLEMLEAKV
Procedure: The His-tagged wt or mutant ERR3 LBDs, the GST-tagged SRC-1 RID, and GST were expressed in E. coli BL21(DE3) and partially purified by affinity chromatography using TALON (Clontech) or Glutathione Sepharose 4B (Pharmacia), respectively. […] After purification the proteins were dialyzed in assay buffer (20 mM Tris.HCl pH 8.0, 200 mM NaCl), and concentrated. For the protein-protein interaction assays […] (about 70 pmol) of His-tagged wt or mutant ERR3 LBD were mixed with […] (about 100 pmol) of GST-tagged SRC-1 RID or […] of GST and incubated on ice for 10 mins. […] Protein complexes were resolved on native polyacrylamide gradient gels (8%-25%) using the Phast System (Pharmacia).
In vitro interaction assays with the RID (amino acids 617-764) of the coactivator SRC-1 has first been performed. Hexahistidine (His)-tagged ERR3, LBD and GST-tagged SRC-1 RID were partially purified by affinity chromatography, the proteins were mixed, and complex formation was monitored on native polyacrylamide gels. […] Complexes were separated on native polyacrylamide gradient gels.

[2] = system: Gal4-ERR3 mutants (A272F, A272L, F435L, L345I-F435L-F450L); assay: Transient transfection luciferase reporter assay, Gal4-ERR3 mutants in COS-1 cells; assay type: cell-based, human; settings: 10^−6M 4-OHT
Procedure: (§1) FIG. 6: represents the transcriptional activities of wild-type and mutant ERR3 fusion proteins in transient transfection assays, wherein (A) COS-1 cells were transfected in 24-well plates with 250 ng per well of Gal4(5×)-TATA-LUC reporter and 50 ng of wt or mutant pCMX-Gal4-ERR3 expression plasmid. […] (B) Experiments were performed as described in (A) using 250 ng per well of Gal4(3×)-TK-LUC reporter plasmid and 50 ng of wt or mutant Gal4-ERR3 expression plasmid. […] FIGS. A to C represent an average of three independent experiments. The activity of the Gal4 DBD control was set to one.
(§2) COS-1 and BHK cells were cultured in DMEM supplemented with 5% FCS, penicillin, streptomycin, and glutamine. Neuro2A cells were cultured in EMEM supplemented with 10% FCS, penicillin, streptomycin, glutamine, and non-essential amino acids. Transient transfection assays were carried out in 24-well plates (0.5×10^5 cells per well for COS-1 and Neuro2A cells, 0.25×10^5 cells per well for BHK cells) using the standard calcium phosphate coprecipitation technique as described in Greiner et al. (Greiner et al., 1996). Cells were transfected with 250 ng of Gal4(5×)-TATA-LUC, Gal4(3×)-TK-LUC, or ERE(2×)-TK-LUC reporter plasmid and 50 ng per well of pCMX-Gal4-ERR3 or pCMX-ERR3 expression plasmid. The empty plasmids pCMX-Gal4 and pCMX served as control. […]

[3] = biological target: T2, Gal4-ERR3 (Homo sapiens, UniProt P62508); assay: Transient transfection luciferase reporter assay, Gal4-ERR3 in COS-1 cells; assay type: cell-based
T2 construct: expressed in transfected cells; host or cells: COS-1
T2 sequence (P62508 229-458): T1 sequence (P62508 229-458)
Procedure: as §1, §2

[4] = biological target: T3, ERR3 (Homo sapiens, UniProt P62508); settings: Coward et al. (2001); cited from earlier work
T3 sequence (P62508 1-458): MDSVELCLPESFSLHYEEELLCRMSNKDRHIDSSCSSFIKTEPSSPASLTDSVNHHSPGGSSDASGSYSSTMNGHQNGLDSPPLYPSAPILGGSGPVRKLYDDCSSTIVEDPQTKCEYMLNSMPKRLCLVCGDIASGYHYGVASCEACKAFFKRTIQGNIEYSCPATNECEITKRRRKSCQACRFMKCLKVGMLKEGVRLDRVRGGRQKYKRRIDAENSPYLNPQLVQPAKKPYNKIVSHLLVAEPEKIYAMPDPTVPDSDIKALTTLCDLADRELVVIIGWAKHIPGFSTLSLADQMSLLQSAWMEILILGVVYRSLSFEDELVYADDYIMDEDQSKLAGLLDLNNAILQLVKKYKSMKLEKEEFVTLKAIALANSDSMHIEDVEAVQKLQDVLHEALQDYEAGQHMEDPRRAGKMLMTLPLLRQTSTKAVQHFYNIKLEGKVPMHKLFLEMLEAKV

[5] = biological target: full length ERR3 (Homo sapiens, UniProt P62508); assay: Transient transfection assay, full length ERR3 with ERE(2×)-TK-LUC reporter; assay type: cell-based; settings: in the presence of 4-OHT
Procedure: COS-1 and BHK cells were cultured in DMEM supplemented with 5% FCS, penicillin, streptomycin, and glutamine. Neuro2A cells were cultured in EMEM supplemented with 10% FCS, penicillin, streptomycin, glutamine, and non-essential amino acids. Transient transfection assays were carried out in 24-well plates (0.5×10^5 cells per well for COS-1 and Neuro2A cells, 0.25×10^5 cells per well for BHK cells) using the standard calcium phosphate coprecipitation technique as described in Greiner et al. (Greiner et al., 1996). Cells were transfected with 250 ng of Gal4(5×)-TATA-LUC, Gal4(3×)-TK-LUC, or ERE(2×)-TK-LUC reporter plasmid and 50 ng per well of pCMX-Gal4-ERR3 or pCMX-ERR3 expression plasmid. The empty plasmids pCMX-Gal4 and pCMX served as control. […] Luciferase activity was assayed as described in Greiner et al. (1996). All experiments were repeated at least three times. B. Results B.1.

4-hydroxytamoxifen [4-OHT]
conformational change of the ERR3 LBD (migration on native gels) ([1]; native gels): retarded
effect on the complex between the wt ERR3 LBD and GST-SRC-1 RID ([1]; native polyacrylamide gradient gels): specifically disrupted
transcriptional activity of Gal4-ERR3(F435L) and Gal4-ERR3(L345I-F435L-F450L) [2]: antagonizes
activity of Gal4-ERR3 ([3]; 10^−6M 4-OHT, Gal4(5×)-TATA-LUC reporter): blocked efficiently
repression of the constitutive activity of Gal4-ERR3 below basal levels of the TK promoter ([3]; Gal4(3×)-TK-LUC reporter): neither 4-OHT nor DES repress
affinities of binding to ERR3 [4]: submicromolar
active repression of transcription of the TK promoter by full length ERR3 [5]: does not actively repress transcription
